Experiment [1] deals with α-glucosidase. The experiment can be described thus: In-vitro α-glucosidase inhibition assay (4-nitro phenyl α-D-glucopyranoside substrate). The experiment is classed as biochemical. The settings on record: for Percent inhibition (0.5 mM): test samples 0.5 mM; for IC50: triplicate, ± SEM. The method, then:
The most recent investigations were carried out utilizing the techniques we previously discussed. The enzyme and substrate were dissolved in phosphate buffer (pH 6.8) which also served as the reaction buffer for the experiments. A 96-well plate was used for the following ingredients: enzyme 2 U/2 mL, test samples (0.5 mM), 20 µL/well, enzyme 20 µL/well, and 135 µL/well reaction buffer. The plate was incubated for 15 min at 37 °C. Changes in absorbance brought on by substrate breakdown were measured at 400 nm for 30 min after each well-received 25 µL of 4-nitro phenyl α-D-glucopyranoside.
The formula below was used to compute the percent inhibition of all drugs tested.1 the%Inhibition=100-O.Dtestcompound/O.Dcontrol×100
EZ-FIT (Perrella Scientific, Inc., USA) to calculate the IC50 for all antidiabetic agents under the study.

Experiment [2] concerns α-glucosidase. The experiment in a line: Kinetic studies of α-glucosidase inhibition (Lineweaver–Burk, secondary replot, Dixon plots). Type of experiment: biochemical. Particulars: for type / mode of inhibition: Lineweaver–Burk plots; for Ki: secondary replot of Lineweaver–Burk plots, reconfirmed by Dixon plots. The text has this: In such types of inhibition, the Vmax of the enzyme remains constant, while the Km value increases (Fig. 3). Lineweaver–Burk plots were used to determine the type of inhibition of the given compounds, in which the reciprocal of the reaction rate was plotted vs. the reciprocal of substrate concentrations to investigate their effect on the Km and Vmax of the α-glucosidase (Fig. 3). To determine the Ki values for all compounds evaluated for kinetics study secondary replot of Lineweaver–Burk plots were applied by taking the slope of each line in Lineweaver–Burk plots vs. different concentrations of the tested compounds. Further Dixon plots were used for the reconfirmation of Ki values (Fig. 3).
Figure 3 The inhibitory mode of 3c, 3g and 3i against α-glucosidase enzyme (A) Line weaver-Burk plot of reciprocal of rate of reaction (velocities) vs reciprocal of substrate p-nitro phenyl-α-D-glucopyranoside in the absence of (filled black square), and in the presence of 7.00 (filled black circle), 3.50 (open circle) and 1.75 µM (open square) of 3c, 3g and 3i. (B) Secondary replot of Line weaver-Burk plot between the slopes of each line on Line weaver-Burk plot against different concentrations of 3c, 3g and 3i. (C) Dixon plot of reciprocal of rate of reaction (velocities) vs different concentrations of 3c, 3g and 3i.

Each structure is given as a SMILES string. Values joined by “and” are separate entries in the source; they are usually repeats but may differ in a detail not shown here. Identical values can stand only once. “Also recorded” adds a separate entry of the source.

The results in this text go back to publication PMC10590377, “Synthesis of novel coumarin-based thiosemicarbazones and their implications in diabetic management via in-vitro and in-silico approaches” (Scientific Reports, 2023).

A word on the IC50: it is the concentration that gives 50% inhibition. A lower IC50 goes with inhibition by little substance. Turning to `O=c1oc2ccccc2c(Cl)c1/C=N/NC(=S)Nc1ccccc1` [Compound 3a, (E)-2-((4-chloro-2-oxo-2H-chromen-3-yl)methylene)-N-phenylhydrazine-1-carbothioamide], in the experiment with α-glucosidase [1], the “Percent inhibition (0.5 mM)” value is given as 92.45%; the IC50 is 10 µM and 10.1 µM.

With `COc1cccc(NC(=S)N/N=C/c2c(Cl)c3ccccc3oc2=O)c1` [Compound 3b, (E)-2-((4-chloro-2-oxo-2H-chromen-3-yl)methylene)-N-(3-methoxyphenyl)hydrazine-1-carbothioamide], in the experiment with α-glucosidase [1], the “Percent inhibition (0.5 mM)” value is given as 94.67% and the IC50 worked out at 6.1 ± 0.11 µM.

Usually Ki stands for a dissociation constant, usually derived from enzyme kinetics or from competition with a known ligand. As to `O=c1oc2ccccc2c(Cl)c1/C=N/NC(=S)Nc1cc(Cl)c(Cl)cc1Cl` [Compound 3c, (E)-2-((4-chloro-2-oxo-2H-chromen-3-yl)methylene)-N-(2,4,5-trichlorophenyl) hydrazine-1-carbothioamide], in the experiment with α-glucosidase [1], the “Percent inhibition (0.5 mM)” value was found to be 94.68% and the concentration for half-maximal inhibition (IC50) was found to be 2.57 ± 0.03 µM. Moreover, in the experiment with α-glucosidase [2], the “type / mode of inhibition” value is “competitive inhibitor; also recorded: concentration-dependent inhibition” and the Ki was 1.62 ± 0.041 µM.

For `O=c1oc2ccccc2c(Cl)c1/C=N/NC(=S)NCc1ccccc1` [Compound 3d, (E)-N-benzyl-2-((4-chloro-2-oxo-2H-chromen-3-yl)methylene) hydrazine-1-carbothioamide], in the experiment on α-glucosidase [1], the “Percent inhibition (0.5 mM)” value is reported as 91.20% and the concentration for half-maximal inhibition (IC50) amounted to 12.6 ± 0.16 µM.

For the compound `Cc1ccc(NC(=S)N/N=C/c2c(Cl)c3ccccc3oc2=O)cc1` [Compound 3e, (E)-2-((4-chloro-2-oxo-2H-chromen-3-yl)methylene)-N-(p-tolyl) hydrazine-1-carbothioamide], in the experiment on α-glucosidase [1], the “Percent inhibition (0.5 mM)” value amounted to 92.75% and the midpoint of inhibition, the IC50, lay at 9.11 ± 0.2 µM.

With `O=c1oc2ccccc2c(Cl)c1/C=N/NC(=S)NC1CCCCC1` [Compound 3f, (E)-2-((4-chloro-2-oxo-2H-chromen-3-yl)methylene)-N-cyclohexylhydrazine-1-carbothioamide], in the experiment with α-glucosidase [1], the “Percent inhibition (0.5 mM)” value was 91.70% and the IC50 is 11.2 ± 0.24 µM.

Take `O=c1oc2ccccc2c(Cl)c1/C=N/NC(=S)NCCc1ccccc1` [Compound 3g, (E)-2-((4-chloro-2-oxo-2H-chromen-3-yl)methylene)-N-phenethylhydrazine-1-carbothioamide]: in the experiment on α-glucosidase [1], the “Percent inhibition (0.5 mM)” value was 95.15% and the IC50 amounted to 2.33 ± 0.04 µM. In the experiment with α-glucosidase [2], the “type / mode of inhibition” value is “competitive inhibitor” and the Ki worked out at 1.33 ± 0.0027 µM.

As to `COc1ccc(NC(=S)N/N=C/c2c(Cl)c3ccccc3oc2=O)cc1` [Compound 3h, (E)-2-((4-chloro-2-oxo-2H-chromen-3-yl)methylene)-N-(4-methoxyphenyl) hydrazine-1-carbothioamide], in the experiment with α-glucosidase [1], the “Percent inhibition (0.5 mM)” value came to 94.63% and half-maximal inhibition (IC50) required 3.4 ± 0.08 µM.

As to `O=c1oc2ccccc2c(Cl)c1/C=N/NC(=S)Nc1ccc([N+](=O)[O-])cc1` [Compound 3i, (E)-2-((4-chloro-2-oxo-2H-chromen-3-yl)methylene)-N-(4-nitrophenyl) hydrazine-1-carbothioamide], in the experiment with α-glucosidase [1], the “Percent inhibition (0.5 mM)” value is reported as 95.30% and the IC50 is 2.13 ± 0.04 µM. Besides, in the experiment on α-glucosidase [2], the “type / mode of inhibition” value was “competitive inhibitor” and the Ki is 1.51 ± 0.0086 µM.

In the case of `Cc1cccc(C)c1NC(=S)N/N=C/c1c(Cl)c2ccccc2oc1=O` [Compound 3j, (E)-2-((4-chloro-2-oxo-2H-chromen-3-yl)methylene)-N-(2,6-dimethylphenyl) hydrazine-1-carbothioamide], in the experiment with α-glucosidase [1], the “Percent inhibition (0.5 mM)” value came to 91.29% and the IC50 turned out to be 22.1 ± 0.37 µM.

In the case of `O=c1oc2ccccc2c(Cl)c1/C=N/NC(=S)Nc1cccc(Cl)c1Cl` [Compound 3k, (E)-2-((4-chloro-2-oxo-2H-chromen-3-yl)methylene)-N-(2,3-dichlorophenyl) hydrazine-1-carbothioamide], in the experiment with α-glucosidase [1], the “Percent inhibition (0.5 mM)” value is recorded as 92.54% and inhibition was half-maximal at 4.22 ± 0.1 µM (IC50).

Regarding `O=c1oc2ccccc2c(Cl)c1/C=N/NC(=S)Nc1ccccc1F` [Compound 3l, (E)-2-((4-chloro-2-oxo-2H-chromen-3-yl)methylene)-N-(2-fluorophenyl) hydrazine-1-carbothioamide], in the experiment on α-glucosidase [1], the “Percent inhibition (0.5 mM)” value is recorded as 92.08% and the half-inhibitory concentration (IC50) was 8.84 ± 0.16 µM.

Take `CNC(=S)N/N=C/c1c(Cl)c2ccccc2oc1=O` [Compound 3m, (E)-2-((4-chloro-2-oxo-2H-chromen-3-yl)methylene)-N-methylhydrazine-1-carbothioamide]: in the experiment with α-glucosidase [1], the “Percent inhibition (0.5 mM)” value is given as 91.37% and the IC50 is 24.2 ± 0.31 µM.

In the case of `C[C@H]1O[C@H](O[C@H]2[C@H](O)[C@@H](O)[C@@H](O[C@H]3[C@H](O)[C@@H](O)C(O)O[C@@H]3CO)O[C@@H]2CO)[C@H](O)[C@@H](O)[C@@H]1N[C@H]1C=C(CO)[C@@H](O)[C@H](O)[C@H]1O` (stereo partly drawn) [acarbose, reference compound], the “Percent inhibition (0.5 mM)” value in the experiment on α-glucosidase [1] came out at 59.37%.
